In ChEMBL document CHEMBL1201862, “PubChem BioAssay data set” (2004):
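Protocol summary: plate cells (96-well), add compound at 5 concentrations, incubate 48 h, interpolate endpoints linearly. GI50 is the concentration that inhibits growth by half.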 Active and inactive are the calls of the source. Cut-off read from the data, not from the text of the source: active = GI50 up to about 1.1 µM and inactive = higher.

How the values were obtained:
Test in all cases: inhibition of tumour cell growth, NCI panel, 48 h
786-0 = system: 786-0
A498 = system: A498
HOP-62 = system: HOP-62
HOP-92 = system: HOP-92
IGROV-1 = system: IGROV-1
K562 = system: K562
KM12 = system: KM12
MCF7 = system: MCF7
MDA-N = system: MDA-N
MOLT-4 = system: MOLT-4
NCI-H460 = system: NCI-H460
OVCAR-4 = system: OVCAR-4
OVCAR-5 = system: OVCAR-5
RPMI-8226 = system: RPMI-8226
SF-268 = system: SF-268
SF-539 = system: SF-539
SNB-75 = system: SNB-75
SK-MEL-5 = system: SK-MEL-5
TK-10 = system: TK-10
Hs-578T = system: Hs-578T

SMILES	GI50 (786-0)	GI50 (A498)	GI50 (HOP-62)	GI50 (HOP-92)	GI50 (IGROV-1)	GI50 (K562)	GI50 (KM12)	GI50 (MCF7)	GI50 (MDA-N)	GI50 (MOLT-4)	GI50 (NCI-H460)	GI50 (OVCAR-4)	GI50 (OVCAR-5)	GI50 (RPMI-8226)	GI50 (SF-268)	GI50 (SF-539)	GI50 (SNB-75)	GI50 (SK-MEL-5)	GI50 (TK-10)	GI50 (Hs-578T)
COc1ccc(N2C(=O)c3cccnc3S2(=O)=O)cc1	> 100 µM (inactive)	> 100 µM (inactive)	> 100 µM (inactive)	> 100 µM (inactive)	> 100 µM (inactive)	> 100 µM (inactive)	> 100 µM (inactive)	> 100 µM (inactive)	> 100 µM (inactive)	> 100 µM (inactive)	> 100 µM (inactive)	> 100 µM (inactive)	> 100 µM (inactive)	> 100 µM (inactive)	> 100 µM (inactive)	> 100 µM (inactive)	> 100 µM (inactive)	–	–	–
Clc1ccc(-c2c(C3=NCCN3)nnn2-c2ccccc2)cc1	> 100 µM (inactive)	> 100 µM (inactive)	> 100 µM (inactive)	92 µM (inactive)	> 100 µM (inactive)	61.1 µM (inactive)	> 100 µM (inactive)	–	–	80.2 µM (inactive)	> 100 µM (inactive)	> 100 µM (inactive)	> 100 µM (inactive)	> 100 µM (inactive)	> 100 µM (inactive)	> 100 µM (inactive)	> 100 µM (inactive)	97.1 µM (inactive)	51.8 µM (inactive)	–
O=C(CC/C(CC(=O)c1ccc(Cl)cc1)=N/O)Nc1ccc(Cl)c(Cl)c1	> 100 µM (inactive)	> 100 µM (inactive)	> 100 µM (inactive)	82.4 µM (inactive)	47.6 µM (inactive)	50.4 µM (inactive)	> 100 µM (inactive)	–	–	53.2 µM (inactive)	> 100 µM (inactive)	43.4 µM (inactive)	24 µM (inactive)	76.9 µM (inactive)	> 100 µM (inactive)	> 100 µM (inactive)	26 µM (inactive)	76.2 µM (inactive)	> 100 µM (inactive)	–
CC1(C)OC(=O)N(c2ccccc2)C12C=Cc1cc([N+](=O)[O-])ccc1O2 (stereo not drawn)	77.3 µM (inactive)	32.4 µM (inactive)	32.1 µM (inactive)	20.2 µM (inactive)	32.7 µM (inactive)	29 µM (inactive)	56.6 µM (inactive)	–	22.6 µM (inactive)	21.7 µM (inactive)	49.9 µM (inactive)	61.8 µM (inactive)	26.9 µM (inactive)	48.5 µM (inactive)	51.1 µM (inactive)	–	43.2 µM (inactive)	36.4 µM (inactive)	39.4 µM (inactive)	19.5 µM (inactive)
N/C(=N\c1ccc(Cl)cc1)NS(=O)(=O)c1cc(Cl)c(Oc2ccc([N+](=O)[O-])cc2Cl)c(Cl)c1	18.9 µM (inactive)	15.5 µM (inactive)	–	17.2 µM (inactive)	15.8 µM (inactive)	18.7 µM (inactive)	17.8 µM (inactive)	–	18.2 µM (inactive)	14.8 µM (inactive)	18.4 µM (inactive)	16 µM (inactive)	19.7 µM (inactive)	–	> 100 µM (inactive)	16.6 µM (inactive)	17.1 µM (inactive)	16.6 µM (inactive)	18.2 µM (inactive)	> 100 µM (inactive)
N#Cc1c(-c2ccccc2)c(/N=N/c2ccc(Cl)cc2)c(=O)n2c1[nH]c1ccccc12	23.6 µM (inactive)	> 100 µM (inactive)	27.2 µM (inactive)	–	73.1 µM (inactive)	–	44.2 µM (inactive)	> 100 µM (inactive)	> 100 µM (inactive)	–	35.5 µM (inactive)	15.7 µM (inactive)	> 100 µM (inactive)	39.9 µM (inactive)	79.1 µM (inactive)	> 100 µM (inactive)	71 µM (inactive)	55.8 µM (inactive)	23.3 µM (inactive)	–
O=C1C2=C(c3ccccc31)C(c1ccccc1Cl)N1C(=O)CSC1=N2 (stereo not drawn)	> 100 µM (inactive)	> 100 µM (inactive)	> 100 µM (inactive)	32.5 µM (inactive)	> 100 µM (inactive)	50.4 µM (inactive)	> 100 µM (inactive)	–	–	33.9 µM (inactive)	> 100 µM (inactive)	60.1 µM (inactive)	> 100 µM (inactive)	39.8 µM (inactive)	56.2 µM (inactive)	> 100 µM (inactive)	39.4 µM (inactive)	> 100 µM (inactive)	> 100 µM (inactive)	–
CC1(C)CC[C@]2(C(=O)O)CC[C@]3(C)C(=CC[C@@H]4[C@@]5(C)CC[C@@H]6OC(C)(C)OC[C@@]6(C)[C@@H]5CC[C@]43C)[C@H]2C1	10 µM (inactive)	15.4 µM (inactive)	10.1 µM (inactive)	–	11.4 µM (inactive)	14.9 µM (inactive)	–	> 10 µM (inactive)	13.3 µM (inactive)	11.5 µM (inactive)	5.46 µM (inactive)	3.05 µM (inactive)	16.8 µM (inactive)	6 µM (inactive)	8.04 µM (inactive)	15.1 µM (inactive)	11 µM (inactive)	–	11.6 µM (inactive)	–
c1ccc(C2SCc3nc4ccccc4n32)cc1 (stereo not drawn)	> 100 µM (inactive)	40.6 µM (inactive)	43.8 µM (inactive)	22.2 µM (inactive)	29.2 µM (inactive)	32.8 µM (inactive)	32.4 µM (inactive)	–	–	28.2 µM (inactive)	40.8 µM (inactive)	66.7 µM (inactive)	> 100 µM (inactive)	20.1 µM (inactive)	37.9 µM (inactive)	22.5 µM (inactive)	3.14 µM (inactive)	18.6 µM (inactive)	52.4 µM (inactive)	–
CCCCCCNCCCNc1c2cc(OC)ccc2nc2cccc([N+](=O)[O-])c12	0.0834 µM (active)	1.62 µM (inactive)	0.0908 µM (active)	0.136 µM (active)	0.0119 µM (active)	0.103 µM (active)	0.144 µM (active)	0.212 µM (active)	–	0.112 µM (active)	0.0336 µM (active)	0.113 µM (active)	0.135 µM (active)	< 0.0289 µM (active)	0.0731 µM (active)	0.29 µM (active)	0.298 µM (active)	< 0.0385 µM (active)	0.131 µM (active)	0.299 µM (active)
CC(C)CCc1n[nH]c(=O)n1/N=C\c1ccccc1	> 100 µM (inactive)	49 µM (inactive)	> 100 µM (inactive)	> 100 µM (inactive)	> 100 µM (inactive)	83 µM (inactive)	> 100 µM (inactive)	–	> 100 µM (inactive)	67.8 µM (inactive)	> 100 µM (inactive)	> 100 µM (inactive)	> 100 µM (inactive)	–	> 100 µM (inactive)	> 100 µM (inactive)	> 100 µM (inactive)	> 100 µM (inactive)	> 100 µM (inactive)	> 100 µM (inactive)
CC(=O)n1[nH]c(=O)n(-c2ccc(Cl)cc2)c1=O	> 100 µM (inactive)	–	> 100 µM (inactive)	–	> 100 µM (inactive)	> 100 µM (inactive)	> 100 µM (inactive)	> 100 µM (inactive)	> 100 µM (inactive)	> 100 µM (inactive)	> 100 µM (inactive)	> 100 µM (inactive)	> 100 µM (inactive)	> 100 µM (inactive)	> 100 µM (inactive)	–	–	> 100 µM (inactive)	> 100 µM (inactive)	–
Cc1ccc(S(=O)(=O)C2=c3nc4ccccc4cc3=C3C(=O)c4ccccc4C(=O)C32)cc1 (stereo not drawn)	> 100 µM (inactive)	35 µM (inactive)	> 100 µM (inactive)	> 100 µM (inactive)	> 100 µM (inactive)	> 100 µM (inactive)	> 100 µM (inactive)	–	–	> 100 µM (inactive)	> 100 µM (inactive)	> 100 µM (inactive)	> 100 µM (inactive)	> 100 µM (inactive)	> 100 µM (inactive)	> 100 µM (inactive)	43.3 µM (inactive)	63.2 µM (inactive)	> 100 µM (inactive)	–
CCOC(=O)C1=C(O)C(=O)c2ccoc2C1=O	> 100 µM (inactive)	> 100 µM (inactive)	> 100 µM (inactive)	> 100 µM (inactive)	> 100 µM (inactive)	> 100 µM (inactive)	> 100 µM (inactive)	–	–	> 100 µM (inactive)	> 100 µM (inactive)	> 100 µM (inactive)	> 100 µM (inactive)	> 100 µM (inactive)	> 100 µM (inactive)	> 100 µM (inactive)	> 100 µM (inactive)	> 100 µM (inactive)	> 100 µM (inactive)	–
O=C(O)CCN(CCCCN(CCC(=O)O)CCC(=O)O)CCC(=O)O	> 100 µM (inactive)	> 100 µM (inactive)	> 100 µM (inactive)	> 100 µM (inactive)	> 100 µM (inactive)	> 100 µM (inactive)	> 100 µM (inactive)	–	–	> 100 µM (inactive)	> 100 µM (inactive)	> 100 µM (inactive)	> 100 µM (inactive)	> 100 µM (inactive)	> 100 µM (inactive)	> 100 µM (inactive)	> 100 µM (inactive)	> 100 µM (inactive)	> 100 µM (inactive)	–
COc1ccc(CN(Cc2ccc(OC)cc2)C(=O)CC2(O)CCc3ccccc3C2)cc1 (stereo not drawn)	> 100 µM (inactive)	> 100 µM (inactive)	> 100 µM (inactive)	> 100 µM (inactive)	> 100 µM (inactive)	> 100 µM (inactive)	26 µM (inactive)	41.2 µM (inactive)	–	7.89 µM (inactive)	44 µM (inactive)	57 µM (inactive)	> 100 µM (inactive)	62.2 µM (inactive)	–	> 100 µM (inactive)	30.1 µM (inactive)	28.8 µM (inactive)	> 100 µM (inactive)	40.3 µM (inactive)
